Like-named read-outs stand apart in the source and are kept apart here.
Assays:
[1] = cited from earlier work; for Ability to form soluble complex with cholesterol in aqueous solution (in words): 37° C., CDs 1.0 × 10^−2 M; for Absorbance (600 nm), increase due to cholesterol dissolved by CDs: aqueous solution at 37° C., concentration of CDs 1.0 × 10^−2 M
[2] = Screening of CDs and CD derivatives for ability to dissolve cholesterol in water (HPLC); type: physicochemical; settings: for Concentrations of Cholesterol in CDs Solution: 5 days at ambient, ND = not detectable
Description: Purpose: To determine the level of cholesterol that can be dissolved in water when 10 different CDs and their derivatives were added at three concentrations.
All CD solutions were prepared with starting 20% (w/v) solutions by accurately adding about 800 mg CDs in 4 milliliter water, 1% and 10% were diluted from this 20% solution to 2 mL for each sample preparation experiment.
Cholesterol was added accurately to all CD water solutions at about 40 mg/mL or about 80 mg per 2 mL. This amount of cholesterol was enough to fully saturate the CD solutions with white settlements or floating or both. All samples were conditioned at ambient by shaking using a rotator for 5 days.
After the equilibration with shaking for 5 days at ambient, the clear or semi-clear portion was filtered with 0.2 μm filter. 50 μL of the filtered solution was diluted with 450 μL methanol (10×) for HPLC analysis. NOVAPAK phenyl column (7.6 cm by 3.9 mm I.D.) was used with a mobile phase of acetonitrile: water (70:30) at a flow rate of 0.5 ml/min and detection at UV at 210 nm.

[3] = test system: Patients with Primary or Recurrent Pterygium
Description: A Phase 2a Multicenter, Randomized, Vehicle-Controlled, Dose Escalating Study was carried out to evaluate the Safety, Efficacy and Pharmacokinetics of Nintedanib Ophthalmic Solution in Patients with Primary or Recurrent Pterygium. The multicenter, randomized, double-masked, vehicle-controlled, parallel study was conducted with 28 days three times a day (TID) repeat ocular dosing of vehicle and 0.2% nintedanib, followed by 5-month post-dosing observation.
Pterygium patients often have meibomian gland atrophy and clinical signs and symptoms of MGD, including ocular pain, itchy, foreign body sensation, redness, sensitivity to light and […]. In the Phase II clinical trial, pterygia patients were asked 15 questions on ocular symptom, vision-related functioning and quality of life via Pterygium Symptom and Life Quality (PSLQ) questionnaires.
PSLQ analyses were performed for 4 average category scores; Overall, Ocular Symptoms, Vision-Related Functioning, and Quality of Life Impact.

[4] = test system: pterygium patients with dry eye or with no dry eye; test: PSLQ ocular symptom score, further analysis by dry eye condition; type: in vivo, human; settings: any timepoint
Text: These ocular symptoms are often observed in MGD patients. Scores of these symptoms were graded by patients as part of PSLQ questionnaires. (1) Dry eye patients vs. Non-dry eye patients (based upon patients' medical history) with the combined nintedanib-treated and vehicle-treated groups. […] The pterygium patients with dry eye condition was compared with pterygium patients with no dry eye condition. In this comparison, all pterygium patients with dry eye condition in the drug and vehicle treated group was combined and the same was done for pterygium patients with no dry eye condition. Number of data points for each group were N=17 for dry eye and N=18 for no dry eye. […] Pterygium patients with dry eye condition had higher baseline score and had bigger reduction from baseline of ocular symptom score during treatment period when compared to pterygium patients with no dry eye condition. (2) Nintedanib vs. Vehicle for dry eye patients (based upon patients' medical history).

| Ability to dissolve cholesterol in water (in words) [2] | Concentrations of Cholesterol in CDs Solution ([2]; CD 1% (w/v) in water) [ng/mL] | Molecule | Ability to form soluble complex with cholesterol in aqueous solution (in words) [1] | Absorbance (600 nm), increase due to cholesterol dissolved by CDs [1] | also measured |
| --- | --- | --- | --- | --- | --- |
| the best | 150000 | random methyl-beta-cyclodextrin [M-BCD] | – | – | – |
| – | 2000 | sulfobutylated beta-cyclodextrin [SBE-BCD] | – | – | Concentrations of Cholesterol in CDs Solution ([2]; CD 10% (w/v) in water): 30000 ng/mL; Concentrations of Cholesterol in CDs Solution ([2]; CD 20% (w/v) in water): 150000 ng/mL |
| extremely low levels | – | 2-hydroxypropyl-gamma-cyclodextrin [HP-GCD, reference compound] | – | – | Concentrations of Cholesterol in CDs Solution ([2]; CD 10% (w/v) in water): 3000 ng/mL; Concentrations of Cholesterol in CDs Solution ([2]; CD 20% (w/v) in water): 11000 ng/mL |
| about half lower | 30000 | OC[C@H]1O[C@H](O[C@H]2[C@H](O)[C@@H](O)[C@@H](OC[C@H]3O[C@@H]4O[C@H]5[C@H](O)[C@@H](O)[C@@H](O[C@H]6[C@H](O)[C@@H](O)[C@@H](O[C@H]7[C@H](O)[C@@H](O)[C@@H](O[C@H]8[C@H](O)[C@@H](O)[C@@H](O[C@H]9[C@H](O)[C@@H](O)[C@@H](O[C@H]%10[C@H](O)[C@@H](O)[C@@H](O[C@H]3[C@H](O)[C@H]4O)O[C@@H]%10CO)O[C@@H]9CO)O[C@@H]8CO)O[C@@H]7CO)O[C@@H]6CO)O[C@@H]5CO)O[C@@H]2CO)[C@H](O)[C@@H](O)[C@@H]1O [6-AM-BCD, 6-O-alpha-maltosyl-beta-cyclodextrin] | – | – | – |
| the best | – | COC[C@H]1O[C@@H]2O[C@H]3[C@H](O)[C@@H](OC)[C@@H](O[C@H]4[C@H](O)[C@@H](OC)[C@@H](O[C@H]5[C@H](O)[C@@H](OC)[C@@H](O[C@H]6[C@H](O)[C@@H](OC)[C@@H](O[C@H]7[C@H](O)[C@@H](OC)[C@@H](O[C@H]8[C@H](O)[C@@H](OC)[C@@H](O[C@H]1[C@H](O)[C@H]2OC)O[C@@H]8COC)O[C@@H]7COC)O[C@@H]6COC)O[C@@H]5COC)O[C@@H]4COC)O[C@@H]3COC [DM-BCD, heptakis (2,6-di-O-methyl)-beta-cyclodextrin] | – | 0.336 | – |

Second part, the molecule before the results:

| Molecule | Ability to dissolve cholesterol in water (in words) [2] | Concentrations of Cholesterol in CDs Solution ([2]; CD 1% (w/v) in water) [ng/mL] | Ability to form soluble complex with cholesterol in aqueous solution (in words) [1] | Absorbance (600 nm), increase due to cholesterol dissolved by CDs [1] | also measured |
| --- | --- | --- | --- | --- | --- |
| OC[C@H]1O[C@@H]2O[C@H]3[C@H](O)[C@@H](O)[C@@H](O[C@H]4[C@H](O)[C@@H](O)[C@@H](O[C@H]5[C@H](O)[C@@H](O)[C@@H](O[C@H]6[C@H](O)[C@@H](O)[C@@H](O[C@H]7[C@H](O)[C@@H](O)[C@@H](O[C@H]1[C@H](O)[C@H]2O)O[C@@H]7CO)O[C@@H]6CO)O[C@@H]5CO)O[C@@H]4CO)O[C@@H]3CO [ACD, alpha-cyclodextrin] | – | – | do not form soluble complexes with cholesterol | 0 | – |
| OC[C@H]1O[C@@H]2O[C@H]3[C@H](O)[C@@H](O)[C@@H](O[C@H]4[C@H](O)[C@@H](O)[C@@H](O[C@H]5[C@H](O)[C@@H](O)[C@@H](O[C@H]6[C@H](O)[C@@H](O)[C@@H](O[C@H]7[C@H](O)[C@@H](O)[C@@H](O[C@H]8[C@H](O)[C@@H](O)[C@@H](O[C@H]1[C@H](O)[C@H]2O)O[C@@H]8CO)O[C@@H]7CO)O[C@@H]6CO)O[C@@H]5CO)O[C@@H]4CO)O[C@@H]3CO [BCD, beta-cyclodextrin] | – | – | do not form soluble complexes with cholesterol | – | – |
| 2-Hydroxypropyl-beta-cyclodextrin [2-HP-β-CD] | substantial ability to dissolve cholesterol | 10000 | weak ability | 0.01 | PSLQ scores compared to the baseline (in words) ([3]; 2-HP-β-CD-treated group): significant improvements; PSLQ Average Vision-Related Functioning Score, Mean ([3]; Baseline, N = 23, SD 0.80, Modified Intent-to-Treat Population): 0.57; PSLQ Average Vision-Related Functioning Score, Change from Baseline, Mean ([3]; Week 2, N = 23, SD 0.65, p-value 0.067 (one sample t-test)): −0.27; PSLQ Average Vision-Related Functioning Score, Change from Baseline, Mean ([3]; Week 4, N = 23, SD 0.65, p-value 0.003): −0.48; PSLQ Average Vision-Related Functioning Score, Change from Baseline, Mean ([3]; Week 8, N = 23, SD 0.62, p-value 0.004): −0.43; PSLQ Average Vision-Related Functioning Score, Change from Baseline, Mean ([3]; Week 16, N = 23, SD 0.56, p-value 0.08): −0.23; PSLQ Average Vision-Related Functioning Score, Change from Baseline, Mean ([3]; Week 24, N = 23, SD 1.1, p-value 0.617): −0.11; Concentrations of Cholesterol in CDs Solution ([2]; CD 10% (w/v) in water): 820000 ng/mL |
| 2-hydroxypropyl-alpha-cyclodextrin [HP-ACD, reference compound] | no detectable cholesterol dissolving activity | – | – | – | – |
| OC[C@H]1O[C@@H]2O[C@H]3[C@H](O)[C@@H](O)[C@@H](O[C@H]4[C@H](O)[C@@H](O)[C@@H](O[C@H]5[C@H](O)[C@@H](O)[C@@H](O[C@H]6[C@H](O)[C@@H](O)[C@@H](O[C@H]7[C@H](O)[C@@H](O)[C@@H](O[C@H]8[C@H](O)[C@@H](O)[C@@H](O[C@H]9[C@H](O)[C@@H](O)[C@@H](O[C@H]1[C@H](O)[C@H]2O)O[C@@H]9CO)O[C@@H]8CO)O[C@@H]7CO)O[C@@H]6CO)O[C@@H]5CO)O[C@@H]4CO)O[C@@H]3CO [GCD, gamma-cyclodextrin] | – | – | do not form soluble complexes with cholesterol | 0 | – |
| COC(=O)c1ccc2c(c1)NC(=O)/C2=C(\Nc1ccc(N(C)C(=O)CN2CCN(C)CC2)cc1)c1ccccc1 [Nintedanib 0.2%, nintedanib] | – | – | – | – | PSLQ ocular symptom score, Nintedanib 0.2% vs Vehicle (in words) [4]: no statistically significant differences |

From patent US11007214B2, “Compositions and methods for treating eye diseases” (CLOUDBREAK THERAPEUTICS LLC, priority 2019, dated 2021)
